Data: ChEMBL document CHEMBL6096740, “Discovery and Optimization of a Series of Novel Morpholine-Containing USP1 Inhibitors” (J Med Chem, 2025)

Legend:
[1] = Metabolic stability in mouse liver microsome assessed as half life preincubated for 5 mins followed by NADPH addition and measured after 120 mins by LC-MS/MS analysis; assay type: ADME; details: liver microsomes, time 125 min
[2] = Metabolic stability in mouse liver microsome assessed as intrinsic clearance preincubated for 5 mins followed by NADPH addition and measured after 120 mins by LC-MS/MS analysis; assay type: ADME; details: liver microsomes, time 125 min, read-out: CLH
[3] = Metabolic stability in rat liver microsome assessed as half life preincubated for 5 mins followed by NADPH addition and measured after 120 mins by LC-MS/MS analysis; assay type: ADME; details: liver microsomes, time 125 min
[4] = Metabolic stability in rat liver microsome assessed as intrinsic clearance preincubated for 5 mins followed by NADPH addition and measured after 120 mins by LC-MS/MS analysis; assay type: ADME; details: liver microsomes, time 125 min, read-out: CLH
[5] = Metabolic stability in dog liver microsome assessed as half life preincubated for 5 mins followed by NADPH addition and measured after 120 mins by LC-MS/MS analysis; assay type: ADME, Canis lupus familiaris; details: liver microsomes, time 125 min
[6] = Metabolic stability in dog liver microsome assessed as intrinsic clearance preincubated for 5 mins followed by NADPH addition and measured after 120 mins by LC-MS/MS analysis; assay type: ADME, Canis lupus familiaris; details: liver microsomes, time 125 min, read-out: CLH
[7] = Metabolic stability in monkey liver microsome assessed as half life preincubated for 5 mins followed by NADPH addition and measured after 120 mins by LC-MS/MS analysis; assay type: ADME, Macaca mulatta; details: rhesus monkey, liver microsomes; time 125 min
[8] = Metabolic stability in monkey liver microsome assessed as intrinsic clearance preincubated for 5 mins followed by NADPH addition and measured after 120 mins by LC-MS/MS analysis; assay type: ADME, Macaca mulatta; details: rhesus monkey, liver microsomes; time 125 min; read-out: CLH
[9] = Metabolic stability in human liver microsome assessed as half life preincubated for 5 mins followed by NADPH addition and measured after 120 mins by LC-MS/MS analysis; assay type: ADME; details: liver microsomes, time 125 min
[10] = Metabolic stability in human liver microsome assessed as intrinsic clearance preincubated for 5 mins followed by NADPH addition and measured after 120 mins by LC-MS/MS analysis; assay type: ADME; details: liver microsomes, time 125 min, read-out: CLH
[11] = Half life in ICR mouse at 10 mg/kg, po measured up to 24 hrs; assay type: ADME, organism-based; details: in vivo
[12] = Tmax in ICR mouse at 10 mg/kg, po measured up to 24 hrs; assay type: ADME, organism-based; details: in vivo
[13] = Cmax in ICR mouse at 10 mg/kg, po measured up to 24 hrs; assay type: ADME, organism-based; details: in vivo
[14] = AUC (0 to t) in ICR mouse at 10 mg/kg, po measured up to 24 hrs; assay type: ADME, organism-based; details: in vivo
[15] = AUC (0 to infinity) in ICR mouse at 10 mg/kg, po measured up to 24 hrs; assay type: ADME, organism-based; details: in vivo

## COc1ncnc(C2CC2)c1-c1nc(N2CCOC[C@H]2c2ccc(-c3nc(C(F)(F)F)cn3C(C)C)cc2)c2occc2n1
[1]
  half-life: 1 h
[2]
  CLint scaled: 90.8 mL/min/kg
[3]
  half-life: > 2 h
[4]
  CLint scaled: < 20.7 mL/min/kg
[5]
  half-life: 1.92 h
[6]
  CLint scaled: 30 mL/min/kg
[7]
  half-life: 0.997 h
[8]
  CLint scaled: 33.9 mL/min/kg
[9]
  half-life: 1.43 h
[10]
  CLint scaled: 20.3 mL/min/kg
[11]
  half-life: 1.92 h
[12]
  Tmax: 0.25 h
[13]
  Cmax: 3510 ng/mL
[14]
  AUC(0-t) at 24 h: 13300 ng·h/mL
[15]
  AUC(0-inf): 14200 ng·h/mL
